Measured values: patent US12351571B2, “Substituted quinoxaline compounds as inhibitors of FGFR tyrosine kinases” (ARRAY BIOPHARMA INC., priority 2018, dated 2025)

Assays:
phosphorylated FGFR3 = phosphorylated FGFR3 (Homo sapiens (Human), UniProt P22607); experiment: FGFR Enzyme Binding Assay (HTRF tracer displacement), FGFR3; details: 5 nM phosphorylated FGFR3, 60 minute incubation at 22° C.; read-out: FGFR3 Enz Binding IC50
Method: (§1) The potency of compounds inhibiting human isoforms of FGFR kinase was determined using Life Technologies' Homogeneous Time Resolved Fluorescence (HTRF)-based binding assay technology. An incubation was conducted with either 5 nM dephosphorylated FGFR1 (Array Biopharma, p1702; SEQ ID NO: 1, amino acids 458 to 765, dephosphorylated by co-expression with PTP1b (protein tyrosine phosphatase 1B)), 5 nM dephosphorylated FGFR2 (Life Technologies, Cat. No. PV4106 that had been dephosphorylated with Lambda protein phosphatase (New England Biolabs, cat #P0753)) or 5 nM phosphorylated FGFR3 (Array Biopharma, p1836; SEQ ID NO: 5, amino acids 449 to 759), 50 nM Kinase Tracer 236 (Life Technologies Cat. No. PR9078A), 2 nM Biotin-anti-6HIS (Life Technologies Cat. No. PV6090) and 2 nM Europium-Streptavidin (Life Technologies Cat. No. PV6025) along with test compound in a buffer consisting of 50 mM HEPES ((4-(2-hydroxyethyl)-1-piperazineethanesulfonic acid, pH 7.5), 5 mM MgCl2, 0.005% Triton X-100, 1 mM DTT, 1 mM NaVO4 and 2% DMSO in a final volume of 12 μL Compounds were typically prepared as a 3-fold or 4-fold serial dilution in DMSO and added to the assay to give the appropriate final concentration. After a 60 minute incubation at 22° C., the extent of tracer displacement was determined using a PerkinElmer EnVision multimode plate reader via HTRF dual wavelength detection, and the percent of control (POC) was calculated using a ratiometric emission factor. One hundred POC was determined using no test compound, and 0 POC was determined in the presence of 1 μM of an appropriate control inhibitor. A 4-parameter logistic curve was fit to the POC values as a function of the concentration of compound, and the IC50 value was the point where the best-fit curve crossed 50 POC.

[1] = biological target: recombinant human FGFR2 cytoplasmic domain (Homo sapiens (Human), UniProt P21802); experiment: FGFR Enzyme Activity Assay (LanthaScreen TR-FRET), FGFR2; type: biochemical; details: 15 μM ATP, 20 minute incubation; read-out: FGFR2 Enz FRET IC50
Method: FGFR2 kinase activity was measured by the Invitrogen LanthaScreen™ Assay technology which directly measures the amount of substrate phosphorylation by TR-FRET using a flourescently-labeled peptide and Europium-labeled antibody. Briefly, 200 pM His-tagged recombinant human FGFR2 cytoplasmic domain (amino acids 403-822) (Life Technologies Cat. No. PR5332A) was incubated with 100 nM Alexa Fluor® 647-Poly-GT Peptide Substrate (Life Technologies Cat. No. PV5836) and 15 μM ATP along with test compound in a buffer consisting of 250 mM HEPES, 25 mM MgCl2, 0.05% TritonX-100, pH 7.5, and 2% DMSO. Compounds were typically prepared in a threefold serial dilution in DMSO and added to the assay to give the appropriate final concentration. After a 20 minute incubation at 22° C., an equal volume of 2 nM LanthaScreen® Eu-PY20 Antibody (Life Technologies Cat. No. PV5691) and 10 mM EDTA were added to quench the kinase reaction and start the detection reaction. After an additional 60 minute incubation at 22° C., the reaction was measured using a PerkinElmer EnVision multimode plate reader via TR-FRET dual wavelength detection, and the percent of control (POC) calculated using a ratiometric emission factor. 100 POC was determined using no test compounds and 0 POC was determined using no enzyme. The POC values were fit to a 4-parameter logistic curve as a function of the concentration of the compound, and the IC50 value is the point where the curve crosses 50 POC.

dephosphorylated FGFR1 = dephosphorylated FGFR1 (Homo sapiens (Human), UniProt P11362); experiment: FGFR Enzyme Binding Assay (HTRF tracer displacement), FGFR1; details: 5 nM dephosphorylated FGFR1, 60 minute incubation at 22° C.; read-out: FGFR1 Enz Binding IC50
Method: as §1

human wild type FGFR1 = human wild type FGFR1 (Homo sapiens (Human), UniProt P11362); experiment: FGFR1 pERK Cell Assay; type: cell-based; details: HEK-293 cells, 1 hour compound, 100 ng/ml human FGF-acidic; maximum concentration 5 μM
Method: HEK-293 cells transfected with doxycycline(dox)-inducible human wild type FGFR1 (SEQ ID NO: 1) were plated in a collagen or poly-D-lysine coated 96 well flat bottom plates at 4×10^5 cells/well in complete Dulbecco's Modified Eagle Medium (DMEM) containing 10% FBS and 1 μg/ml doxycycline and allowed to attach for 24 h at 37° C., 5% CO2. Cells were treated with compound using 1:3 serial dilutions with a maximum final concentration of 5 μM. Compound was incubated on cells for 1 hour at 37° C., 5% CO2. Cells were then stimulated with a final concentration of 100 ng/ml human FGF-acidic (R&D Systems Cat number 232-FA/CF) for 5 minutes at 37° C., 5% CO2. Medium was removed, and cells were lysed with lysis buffer containing phosphatase and protease inhibitors. Phospho ERK1/2 was measured using the Meso Scale Discovery sandwich assay (Meso Scale Discovery cat. no. K151DWD). The assay captures phospho ERK1/2 and detects with a sulfo-tagged total ERK1/2 antibody. The chemiluminescent signal was read on the Sector Imager Plate reader. 100 POC was determined using no test compound and 0 POC was determined using a control compound. The POC values were fit to a 4-parameter logistic curve as a function of the concentration of the compound, and the IC50 value is the point where the curve crosses 50 POC.

recombinant human FGFR2 cytoplasmic domain, sequence (P21802 402-821): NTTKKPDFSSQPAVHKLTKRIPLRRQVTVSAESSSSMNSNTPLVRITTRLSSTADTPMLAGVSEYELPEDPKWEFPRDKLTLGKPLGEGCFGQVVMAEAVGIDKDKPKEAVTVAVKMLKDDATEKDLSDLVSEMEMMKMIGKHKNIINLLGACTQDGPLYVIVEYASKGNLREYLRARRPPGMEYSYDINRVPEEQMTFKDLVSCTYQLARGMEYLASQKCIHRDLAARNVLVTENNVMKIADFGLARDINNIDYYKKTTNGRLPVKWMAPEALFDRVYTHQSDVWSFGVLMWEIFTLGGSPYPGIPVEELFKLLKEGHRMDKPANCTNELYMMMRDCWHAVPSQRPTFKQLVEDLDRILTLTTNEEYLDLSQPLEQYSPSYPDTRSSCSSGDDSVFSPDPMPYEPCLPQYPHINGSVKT
phosphorylated FGFR3, sequence (P22607 449-759): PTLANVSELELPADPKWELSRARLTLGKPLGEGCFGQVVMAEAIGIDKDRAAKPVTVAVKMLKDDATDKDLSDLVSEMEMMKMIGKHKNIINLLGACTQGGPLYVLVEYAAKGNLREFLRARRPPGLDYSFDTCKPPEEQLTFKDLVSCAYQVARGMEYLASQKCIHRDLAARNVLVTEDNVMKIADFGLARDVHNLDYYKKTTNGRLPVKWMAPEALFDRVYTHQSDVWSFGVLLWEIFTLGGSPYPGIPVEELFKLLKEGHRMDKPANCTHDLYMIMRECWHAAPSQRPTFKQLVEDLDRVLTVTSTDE
human wild type FGFR1, sequence (P11362 22-822): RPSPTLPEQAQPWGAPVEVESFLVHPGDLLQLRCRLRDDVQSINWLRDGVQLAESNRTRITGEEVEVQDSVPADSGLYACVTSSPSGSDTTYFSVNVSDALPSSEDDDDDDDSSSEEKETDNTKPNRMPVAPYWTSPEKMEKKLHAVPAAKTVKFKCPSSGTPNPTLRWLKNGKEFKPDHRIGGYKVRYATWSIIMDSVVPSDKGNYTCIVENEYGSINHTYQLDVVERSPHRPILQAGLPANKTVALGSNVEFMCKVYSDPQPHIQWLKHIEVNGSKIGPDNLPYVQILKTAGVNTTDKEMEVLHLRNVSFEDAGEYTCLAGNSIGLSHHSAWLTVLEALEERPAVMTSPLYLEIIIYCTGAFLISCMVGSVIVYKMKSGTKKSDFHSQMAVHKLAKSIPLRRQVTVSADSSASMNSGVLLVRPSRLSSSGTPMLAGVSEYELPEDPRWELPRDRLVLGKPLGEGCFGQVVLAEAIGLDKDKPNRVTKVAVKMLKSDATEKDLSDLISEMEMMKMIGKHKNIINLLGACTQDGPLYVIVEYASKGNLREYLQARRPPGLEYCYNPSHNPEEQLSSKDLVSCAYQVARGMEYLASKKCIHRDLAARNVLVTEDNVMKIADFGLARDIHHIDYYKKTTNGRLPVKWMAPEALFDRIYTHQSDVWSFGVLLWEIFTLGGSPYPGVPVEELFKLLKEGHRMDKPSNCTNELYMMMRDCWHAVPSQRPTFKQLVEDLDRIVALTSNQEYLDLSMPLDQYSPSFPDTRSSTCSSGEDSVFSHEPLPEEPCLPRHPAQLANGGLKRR
dephosphorylated FGFR1, sequence (P11362 458-765): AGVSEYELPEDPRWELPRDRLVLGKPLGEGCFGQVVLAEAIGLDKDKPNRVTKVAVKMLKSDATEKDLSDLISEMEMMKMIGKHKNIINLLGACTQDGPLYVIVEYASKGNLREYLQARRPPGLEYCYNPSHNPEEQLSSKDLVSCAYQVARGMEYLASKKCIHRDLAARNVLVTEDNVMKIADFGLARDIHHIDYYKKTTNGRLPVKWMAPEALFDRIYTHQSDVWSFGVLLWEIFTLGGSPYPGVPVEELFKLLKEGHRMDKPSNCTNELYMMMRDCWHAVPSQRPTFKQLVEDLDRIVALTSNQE

Row | IC50 (phosphorylated FGFR3) [nM] | IC50 [1] [nM] | IC50 (dephosphorylated FGFR1) [nM] | IC50 (human wild type FGFR1) [nM] | SMILES
1 | 2 | 5 | 6 | 34 | C#CCN(c1cc(OC)cc(OC)c1)c1ccc2ncc(-c3cnn(C4CCN(C(=O)C5(F)CN(C(=O)/C=C/CN(C)C)C5)CC4)c3)nc2c1 [Example 28, (E)-1-(3-(4-(4-(7-((3,5-dimethoxyphenyl)(prop-2-yn-1-yl)amino)quinoxalin-2-yl)-1H-pyrazol-1-yl)piperidine-1-carbonyl)-3-fluoroazetidin-1-yl)-4-(dimethylamino)but-2-en-1-one]
2 | 9 | 211 | 53 | 225 | C=CC(=O)N1CC(OC)(C(=O)N2CCC(n3cc(-c4cnc5ccc(Nc6cc(OC)cc(OC)c6)cc5n4)cn3)CC2)C1 [Example 24, 1-(3-(4-(4-(7-((3,5-dimethoxyphenyl)amino)-quinoxalin-2-yl)-1H-pyrazol-1-yl)piperidine-1-carbonyl)-3-methoxy-azetidin-1-yl)prop-2-en-1-one]
3 | 3 | 15 | 44 | 149 | COc1cc(Nc2ccc3ncc(-c4cnn(C5CCN(C(=O)C6(C#N)CN(C(=O)/C=C/CN(C)C)C6)CC5)c4)nc3c2)cc(OC)c1 [Example 11, (E)-3-(4-(4-(7-((3,5-dimethoxyphenyl)amino)-quinoxalin-2-yl)-1H-pyrazol-1-yl)piperidine-1-carbonyl)-1-(4-(dimethyl-amino)but-2-enoyl)-azetidine-3-carbonitrile]
4 | 13 | 3460 | 842 | 1940 | COc1cc(Nc2ccc3ncc(-c4c(C)nn(C5CCN(C(=O)C6(F)CN(C(=O)/C=C/CN(C)C)C6)CC5)c4C)nc3c2)cc(OC)c1 [Example 23, (E)-1-(3-(4-(4-(7-((3,5-dimethoxyphenyl)amino)-quinoxalin-2-yl)-3,5-dimethyl-1H-pyrazol-1-yl)piperidine-1-carbonyl)-3-fluoroazetidin-1-yl)-4-(dimethylamino)but-2-en-1-one]
5 | 6 | 121 | 37 | 1650 | C=CC(=O)N1CC(O)(C(=O)N2CCC(n3cc(-c4cnc5ccc(Nc6cc(OC)cc(OC)c6)cc5n4)cn3)CC2)C1 [Example 26, 1-(3-(4-(4-(7-((3,5-dimethoxyphenyl)amino)quinoxalin-2-yl)-1H-pyrazol-1-yl)piperidine-1-carbonyl)-3-hydroxyazetidin-1-yl)prop-2-en-1-one]
6 | 2 | 10 | 22 | 2230 | COc1cc(Nc2ccc3ncc(-c4cnn(C5CCN(C(=O)C6CN(C(=O)/C=C/CN(C)C)C6)CC5)c4)nc3c2)cc(OC)c1 [Example 9, (E)-1-(3-(4-(4-(7-((3,5-dimethoxyphenyl)amino)-quinoxalin-2-yl)-1H-pyrazol-1-yl)piperidine-1-carbonyl)azetidin-1-yl)-4-(dimethylamino)but-2-en-1-one]
7 | 59 | 365 | 623 | 2690 | C=CC(=O)N1CC(C(=O)N2CCN(c3ccc(-c4cnc5ccc(Nc6cc(OC)cc(OC)c6)cc5n4)cn3)CC2)C1 [Example 5, 1-(3-(4-(5-(7-((3,5-dimethoxyphenyl)amino)-quinoxalin-2-yl)pyridin-2-yl)piperazine-1-carbonyl)azetidin-1-yl)-prop-2-en-1-one]
8 | 30 | 744 | 558 | 1140 | C=CC(=O)N1CC(F)(C(=O)N2CCN(c3ccc(-c4cnc5ccc(Nc6cc(OC)cc(OC)c6)cc5n4)cn3)CC2)C1 [Example 8, 1-(3-(4-(5-(7-((3,5-dimethoxyphenyl)amino)-quinoxalin-2-yl)pyridin-2-yl)piperazine-1-carbonyl)-3-fluoroazetidin-1-yl)-prop-2-en-1-one]
9 | 116 | 5000 | 2370 | ≥ 5000 | C=CC(=O)N1CC(F)(C(=O)N2CCN(c3cc(C)c(-c4cnc5ccc(Nc6cc(OC)cc(OC)c6)cc5n4)cn3)CC2)C1 [Example 15, 1-(3-(4-(5-(7-((3,5-dimethoxyphenyl)amino)-quinoxalin-2-yl)-4-methylpyridin-2-yl)-piperazine-1-carbonyl)-3-fluoroazetidin-1-yl)prop-2-en-1-one]
10 | 3 | 11 | 28 | 134 | COc1cc(Nc2ccc3ncc(-c4cnn(C5CCN(C(=O)C6(F)CN(C(=O)/C=C/CN(C)C)C6)CC5)c4)nc3c2)cc(OC)c1 [Example 10, (E)-1-(3-(4-(4-(7-((3,5-dimethoxyphenyl)amino)-quinoxalin-2-yl)-1H-pyrazol-1-yl)piperidine-1-carbonyl)-3-fluoro-azetidin-1-yl)-4-(dimethylamino)but-2-en-1-one]
11 | 123 | 666 | 4140 | 1940 | COc1cc(Nc2ccc3ncc(-c4cnc(N5CCN(C(=O)C6(F)CN(C(=O)/C=C/CN(C)C)C6)CC5)cc4C)nc3c2)cc(OC)c1 [Example 14, (E)-1-(3-(4-(5-(7-((3,5-dimethoxyphenyl)amino)-quinoxalin-2-yl)-4-methylpyridin-2-yl)-piperazine-1-carbonyl)-3-fluoroazetidin-1-yl)-4-(dimethylamino)but-2-en-1-one]
12 | 5 | 27 | 30 | 3000 | C=CC(=O)N1CC(C(=O)N2CC(n3cc(-c4cnc5ccc(Nc6cc(OC)cc(OC)c6)cc5n4)cn3)C2)C1 [Example 16, 1-(3-(3-(4-(7-((3,5-dimethoxyphenyl)amino)-quinoxalin-2-yl)-1H-pyrazol-1-yl)azetidine-1-carbonyl)azetidin-1-yl)-prop-2-en-1-one]
13 | 11 | 227 | 342 | 1530 | COc1cc(Nc2ccc3ncc(-c4ccc(N5CCN(C(=O)C6(F)CN(C(=O)/C=C/CN(C)C)C6)CC5)nc4)nc3c2)cc(OC)c1 [Example 7, (E)-1-(3-(4-(5-(7-((3,5-dimethoxyphenyl)amino)-quinoxalin-2-yl)pyridin-2-yl)piperazine-1-carbonyl)-3-fluoroazetidin-1-yl)-4-(dimethylamino)but-2-en-1-one]
14 | 3 | 333 | 50 | 206 | C=CC(=O)N1CC(CN2CCC(n3cc(-c4cnc5ccc(Nc6cc(OC)cc(OC)c6)cc5n4)cn3)CC2)(OC)C1 [Example 29, 1-(3-((4-(4-(7-((3,5-dimethoxyphenyl)amino)quinoxalin-2-yl)-1H-pyrazol-1-yl)piperidin-1-yl)methyl)-3-methoxyazetidin-1-yl)prop-2-en-1-one]
